# Columns and labels:
# [1] = system: patients with cognitive impairment consistent with MCI or mild probable AD; assay: Open-label three-month study, cognitive tests (QDRS, MMSE, MoCA, ADAS-Cog12, Global Rating of Change); type: in vivo, human
# From the text: Twenty-three patients, approximately equal numbers of men women, age 50-89 years, with cognitive impairment consistent with MCI or mild probable AD, but without other readily apparent major systemic disease were identified and received informed consent under the supervision of a central institution review board (IRB). Patients were qualified (screened) for the study by the following criteria, QDRS score ranging from 1.5-12.5, with a converted Clinical Dementia Rating (CDR) score of 0.5 (mild cognitive impairment) to 1 (mild dementia).
# Prior to treatment (baseline) concomitant medications were stabilized and the patients were tested for cognitive function by the Quick Dementia Rating Scale (QDRS), Clinical Dementia Rating (CDR) score as estimated by the QDRS, a modified form of the Alzheimer's Disease Assessment Scale (ADAS-Cog12), the Mini-Mental State Examination (MMSE), and the Montreal Cognitive Assessment (MoCA) and by multi-modal brain MRIs to establish pre-treatment data for glutathione levels (as measured by magnetic resonance spectroscopy, MRS), dendritic density (as measured by diffusion tensor imaging, DTI-NODDI); arterial signal compared (as quantified by arterial spin labeling, ASL), functional connectivity of the nucleus basalis of Meynert (NBM) with both hippocampi as well as between both hippocampi as visualized by seed analysis of blood-oxygen level dependent (BOLD) imaging, and neurovascular coupling as visualized by BOLD compared to baseline. Baseline samples of the patients' blood and cerebral spinal fluid were collected for evaluation of AD and inflammation biomarkers.
# Patients were treated with 20 mg 17α-ethynylandrost-5-ene-3β,7β,17β-triol oral capsules twice daily (BID for three months. All patients received 17α-ethynylandrost-5-ene-3β,7β,17β-triol; there were no placebo controls. Safety was monitored at clinical visits at 2 weeks, 4 weeks, 8 weeks, and completion. Routine hematology and clinical chemistry tests were performed at these visits and adverse events were monitored.
# At the end of the treatment schedule the baseline assessments for cognition, neuroimaging and biomarkers were repeated.
# [2] = system: patients with degenerative dementia; assay: Exit interviews with patients who completed NE3107-TRP-001; type: in vivo, human
# Protocol: The exit interviews were conducted in the US with 11 adult patients/study partners who completed the Phase 2 trial of NE3107. Participants (patients and study partners) completed one 60-minute semi-structured interview via remote videoconference to facilitate face-to-face communication.
# Each interview was divided into four parts: 1) elicitation of experience with degenerative dementia, 2) changes due to treatment with NE3107 and meaningfulness of those changes, 3) experience with NE3107 during the trial, and, if applicable, 4) study partner perceptions of the patient's changes during the trial and their trial experience.
# Interviews took place via videoconference with a trained and experienced interviewers using a semi-structured interview guide. Participants were required to confirm that they signed the ICF for the exit interview, and provide permission to record the interview. The interviews lasted approximately 60 minutes. Open-ended questions were used to characterize the participant's experience with degenerative dementia. Three overarching topics were covered: 1) degenerative dementia signs and symptoms prior to the trial, 2) changes experienced during the trial, and 3) experience with the trial medication (NE3107). Interviewers noted spontaneously reported changes experienced during the trial and followed up with probes (as needed) to elicit the full range of changes experienced.
# If both the patient and study partner participated, the patient was interviewed first with the study partner present. Following the patient interview, the study partner was interviewed without the patient present. Interviewers were instructed to direct the questions towards the patient and to remind the study partner that they would have an opportunity to add information or different perspectives at the end.
# The coding and analysis of the interview transcripts followed principles in line with qualitative thematic (content) analysis (Braun et al. 2019), with additional features drawn from grounded theory (Bryant and Charmaz 2007; Strauss and Corbin 1998). This approach conforms to best practices in the field (Patrick et al. 2011). A saturation table was developed during the coding process and updated after each interview to ensure that the interviews provided sufficient quality and quantity of data to support the study goals. The focus of saturation was changes due to treatment.
# During the interviews, patients were asked open-ended questions about any changes they experienced as a result of being treated with NE3107. Patients reported 14 unique change-related concepts related that were categorized as follows: cognitive (2 concepts), psychological (4 concepts), behavioral (2 concepts), physical (5 concepts), and no change (1 concept) (Table 3).
# [3] = overall population, three months
# [4] = patients with a baseline MMSE score 20, three months
smiles,measurement,setting,value
"C#C[C@]1(O)CC[C@H]2[C@@H]3[C@@H](O)C=C4C[C@@H](O)CC[C@]4(C)[C@H]3CC[C@@]21C [17α-ethynylandrost-5-ene-3β,7β,17β-triol, 17-ethynyl-10R, 13S-dimethyl 2,3,4,7, 8R, 9S, 10, 11, 12, 13, 14S, 15, 16, 17-hexadecahydro-1H-cyclopenta[a]phenanthrene-3R, 7R, 17S-triol]","QDRS, median decrease","[1]; 20 mg oral BID, three months vs baseline",0.75 points
same,"GSR scores improved, by patients","[1]; MCI patients, three months",15 of 17
same,"GSR scores improved, by study partners","[1]; MCI patients, three months",11 of 17
same,"GSR scores improved, by the clinician","[1]; MCI patients, three months",16 of 17
same,Median QDRS behavioral improved,"[1]; MCI patients, three months",one
same,"Montreal Cognitive Assessment, improved","[1]; MCI patients, three months",7 of 17
same,"QDRS behavioral, improved","[1]; MCI patients, three months",11 of 18
same,"ADAS Cog 12, median score improved","[1]; MCI population, three months",2.3 points
same,"ADAS Cog 12 score, improved","[1]; MCI population, three months",14 of 17
same,"MMSE score, improved","[1]; MCI population, three months",8 of 17
same,"QDRS, patients improved","[1]; of patients evaluated, 20 mg oral BID, three months",14 of 21
same,"ADAS Cog 12, median score improved",[1]; [3],0.67 points
same,"ADAS Cog 12 score, improved",[1]; [3],14 of 23
same,"Global Rating of Change (GRS), clinician's score improved",[1]; [3],18 of 23
same,"Global Rating of Change (GRS), patient's self-evaluation score improved",[1]; [3],18 of 23
same,"Global Rating of Change (GRS), score from study partners improved",[1]; [3],13 of 22
same,"MMSE score, improved",[1]; [3],9 of 23
same,"Montreal Cognitive Assessment, patients improved",[1]; [3],9 of 23
same,improved (QDRS),[1]; [4],12/17
same,median score improvement (QDRS),[1]; [4],one
same,Median QDRS cognition subscores improved (declined),[1]; three months vs baseline,0.5 points
same,"QDRS cognition subscores, patients improved",[1]; three months vs baseline,16/23
same,average number of positive changes per patient who improved,"[2]; SD=1.86, range 1-7",4.7
same,Change due to treatment reported by patients: No Change,"[2]; exit interviews, N = 11",2 n
same,patients who experienced no change,"[2]; exit interviews, N = 11, figure in brackets after the count",15.4
same,Change due to treatment reported by patients: No Change,"[2]; exit interviews, N = 11, listed as NE3107",two
same,Cognitive Change from Interview (Memory or Clarity),[2]; subject N-02-22,Improvement
same,Cognitive Change from Interview (Memory or Clarity),[2]; subject N-03-22,Improvement
same,Cognitive Change from Interview (Memory or Clarity),[2]; subject N-07-22,Improvement
same,Cognitive Change from Interview (Memory or Clarity),[2]; subject N-10-22,No Change
same,Cognitive Change from Interview (Memory or Clarity),[2]; subject N-14-22,No Change
same,Cognitive Change from Interview (Memory or Clarity),[2]; subject N-16-22,Improvement
same,Cognitive Change from Interview (Memory or Clarity),[2]; subject N-17-22,Improvement
same,Cognitive Change from Interview (Memory or Clarity),[2]; subject N-18-22,Improvement
same,Cognitive Change from Interview (Memory or Clarity),[2]; subject N-20-22,Improvement
same,Cognitive Change from Interview (Memory or Clarity),[2]; subject N-22-22,Improvement
same,Cognitive Change from Interview (Memory or Clarity),[2]; subject N-23-22,Improvement
